Patent US20080299123A1, “TREATMENT OF CHEMOTHERAPY- OR RADIOTHERAPY-RESISTANT TUMORS” (Deutsches Krebsforschungszentrum Stiftung des offentlichen …, priority 2006, published 2008)

Key:
Format in all cases: cell-based, human
[1] = tested on: cathepsin B and CRABPII transcription; assay: L1-dependent gene regulation by qPCR in HEK293-hL1wt cells; details: preincubation 96 h
Description: (A) Analysis of L1-32 cleavage by γ-secretase. Cells were treated for 48 h at 37° C. with presenilin inhibitor IX (DAPT) or for control with DMSO. Isolated membranes were incubated for 2 h at 37° C. and then separated into pellet or supernatant (SN) fractions by ultracentrifugation. Lanes 1 to 2 show cells treated with DMSO (vehicle). Lanes 3 and 4 show cells preincubated with DAPT. (B) SKOV3ip cells were treated with DAPT either in the presence or absence of the metalloprotease inhibitor TAPI-0 for 24 hr. Cells were lysed in BOG lysis buffer and analyzed by Western blot analysis. The cell supernatant was analyzed for soluble L1 using mAb L1-11A and the cell lysate was examined for L1-32 using peytL1. (C) HEK293 or HEK293-hL1wt cells were treated with DMSO, DAPT, TAPI-0 or both inhibitors for 96 h. mRNA was transcribed to cDNA and analyzed by qPCR for the genes CRABPII and cathepsin B. (D) Analysis of ERK phosphorylation in SKOV3ip cells after treatment with the indicated compounds.
We next investigated whether L1-mediated gene regulation was dependent on L1-processing, by carrying out inhibition experiments. […]
mRNA was isolated using the Quiagen RNAeasy mini kit (Quiagen Hilden, Germany). […] After exposing of the hybridized membranes, the PhosphorImager screens were scanned (Fuji FLA-3000, 100 μm resolution, Fuji BAS-reader software). […]

[2] = tested on: L1CAM transfected PT45-P1 cells; assay: Caspase-3/-7 assay in L1CAM transfected PT45-P1 cells; details: inhibitor 10 μmol/L, 20 μg/mL etoposide 24 hours
Description: PT45-P1res cells (a,b) or PT45-P1 cells transfected with L1CAM or an empty control vector (mock) (c,d) were left untreated (w/o) or were either treated with Tapi-0, Tapi-1, GM6001 or L685,458 (each 10 μmol/L) for 24 hours. (a,c) Cellular lysates were subjected to western blotting using either the antibody clone UJ127 from Acris detecting only full-length L1CAM or the pcytL1 antibody detecting also the cytoplasmic part of L1CAM. HSP90 was detected as a control for equal protein load. (b,d) Thirty minutes after treatment with the respective inhibitor, cells were either left untreated or treated with 20 μg/mL etoposide for 24 hours. Then, cells were analysed for caspase-3/-7 activity expressed as n-fold induction of caspase-3/-7 activity of basal. Means±SD from three independent experiments are shown. * indicates p<0.05.
(§1) As described elsewhere (Sebens Müerköster et al., 2006), apoptosis was determined by staining with annexinV/propidium iodide (Biocarta, Hamburg, Germany) and subsequent fluorescence flow cytometry (GalaxyArgon Plus; DAKO Cytomation, Hamburg, Germany) using the FLOMAX software, and by the detection of caspase-3/-7 activity using a homogeneous luminescent assay (Promega, Mannheim, Germany). All samples were measured in duplicates.
(§2) For L1CAM transfection, PT45-P1 cells were seeded into 6 well plates (2×10^5 cells/well), were grown overnight, followed by transfection with 5 μL/well DIMRIE reagent (Invitrogen) and 0.6 μg/well of the following plasmids: pcDNA3.1 (mock) or pcDNA3.1-L1CAM (L1CAM). Upon transfection for 18 hours, 1 mL medium containing 20% FCS was added and cells were left untreated or were treated as indicated for further 24 hours. For knock down of L1CAM, PT45-P1res cells were seeded into 12 well plates (1×10^5 cells/well), were grown overnight followed by transfection with 12 μL/well RNAiFect reagent (Invitrogen) and 2 μg/well of either Stealth negative control siRNA (Invitrogen) or Stealth L1CAM siRNA (Invitrogen). After overnight transfection, cells were either left untreated or treated as indicated for further 24 hours.

PT45-P1res cells = assay: Caspase-3/-7 assay in PT45-P1res cells; details: inhibitor 10 μmol/L, 20 μg/mL etoposide 24 hours
Description: (a) PT45-P1 res cells were transfected with control siRNA or with two L1CAM specific siRNAs. Western blotting for the detection of full-length L1CAM or of HSP90 as a control for equal protein load was performed (upper panel). In parallel, siRNA transfected PT45-P1res cells were treated with 20 μg/mL etoposide or not for 24 hours and caspase-3/-7 activity was determined. (b) siRNA transfected PT45-P1res cells were subjected to L1CAM immunostaining (L1-11A antibody) or staining with an isotype matched control antibody followed by flow cytometry. One representative histogram is shown. (c) siRNA transfected PT45-P1res cells were analysed by western blotting for the detection of full-length L1 CAM, αv-integrin or HSP90 (d) After overnight siRNA transfection, cells were either left untreated or were either treated with 20 μg/mL etoposide or with 5 μg/mL gemcitabine for 24 hours, followed by either AnnexinV/PI staining and flow cytometry (AnnexinV positive cells over basal) or by caspase-3/-7 assay (n-fold induced caspase-3/-7 activity of basal). (e) PT45-P1res cells were either left untreated (w/o) or were treated with 20 μg/mL etoposide in the absence (w/o) or presence of either 5 μg/mL anti L1CAM antibody (Clone L1-11A) or 5 μg/mL isotype matched control antibody. After 24 hours, cells were analysed by AnnexinV/PI staining or by caspase-3/-7 assay. Means±SD from three independent experiments are shown. * indicates p<0.05.
as §1, §2

CC(C)C[C@H](CC(=O)NO)C(=O)N[C@@H](Cc1ccc2ccccc2c1)C(=O)N[C@@H](C)C(N)=O [TAPI-0]
L1-dependent regulation of transcription for cathepsin B and CRABPII [1]: blocked | apoptosis inducing effect of etoposide (caspase-3/-7) [2]: nor affect the apoptosis inducing effect of etoposide | apoptosis induction after etoposide treatment (caspase-3/-7) (PT45-P1res cells): did not significantly affect apoptosis induction after etoposide treatment
